Four compounds from article PMC10307805, “DprE2 is a molecular target of the anti-tubercular nitroimidazole compounds pretomanid and delamanid” (Nature Communications, 2023) can be followed below.

What all share (assay type): biochemical
Test [1] has as its target T1, DprE2 (decaprenylphosphoryl-2-keto-β-D-erythro-pentose reductase) (Mycobacterium tuberculosis, UniProt P9WGS9).
Test [2] has as its target T2, Ddn (deazaflavin F420-dependent nitroreductase) (Mycobacterium tuberculosis, UniProt P9WP15).
T2 construct: recombinant Ddn, SUMO tag removed

Test [3] addresses DprE1 (decaprenylphosphoryl-β-D-ribose oxidase) (Mycobacterium tuberculosis, UniProt P9WJF1). As to the kind of experiment: resazurin reduction fluorescence assay with GGPR (also […] on Mt-DprE1-DprE2 complex). Background: Resazurin is reduced to fluorescent resorufin, in cell work by metabolically active cells.
In test [4] the target is T1, DprE2 (decaprenylphosphoryl-2-keto-β-D-erythro-pentose reductase). As to the kind of experiment: […]; also IC50 […] and radiolabeled DPR epimerization TLC.

In general, IC50 refers to the concentration that gives 50% inhibition. Read a high IC50 as a need for much substance. In general, Ki refers to the equilibrium dissociation constant of an inhibitor or competing ligand from its target.

T1 sequence (P9WGS9 whole entry, looked up): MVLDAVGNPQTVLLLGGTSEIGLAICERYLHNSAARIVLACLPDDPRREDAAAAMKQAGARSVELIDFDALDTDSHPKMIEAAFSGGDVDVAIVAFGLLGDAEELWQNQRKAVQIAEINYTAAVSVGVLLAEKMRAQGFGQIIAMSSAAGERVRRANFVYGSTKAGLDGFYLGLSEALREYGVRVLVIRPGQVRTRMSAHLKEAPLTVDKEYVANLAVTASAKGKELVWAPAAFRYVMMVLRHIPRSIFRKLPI
T2 sequence (P9WP15 whole entry): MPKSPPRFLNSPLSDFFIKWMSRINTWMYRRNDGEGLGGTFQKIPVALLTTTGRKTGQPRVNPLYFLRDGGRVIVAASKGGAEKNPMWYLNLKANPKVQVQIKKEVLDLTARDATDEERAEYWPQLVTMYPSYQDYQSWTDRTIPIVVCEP
Sequence of DprE1 (decaprenylphosphoryl-β-D-ribose oxidase) (P9WJF1 whole entry): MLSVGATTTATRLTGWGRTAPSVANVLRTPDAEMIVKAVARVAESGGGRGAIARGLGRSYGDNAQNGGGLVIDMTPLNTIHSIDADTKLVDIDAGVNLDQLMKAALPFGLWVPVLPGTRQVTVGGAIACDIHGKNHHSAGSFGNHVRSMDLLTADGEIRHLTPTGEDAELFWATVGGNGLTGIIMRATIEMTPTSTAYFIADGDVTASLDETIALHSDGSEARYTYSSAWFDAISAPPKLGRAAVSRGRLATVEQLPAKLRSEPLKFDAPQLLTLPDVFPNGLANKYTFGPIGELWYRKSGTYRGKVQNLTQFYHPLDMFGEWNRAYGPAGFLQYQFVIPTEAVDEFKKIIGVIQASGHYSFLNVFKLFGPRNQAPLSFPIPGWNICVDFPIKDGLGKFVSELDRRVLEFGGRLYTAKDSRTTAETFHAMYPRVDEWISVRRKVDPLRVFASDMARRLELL

In the case of `NC(=O)C1=CN([C@@H]2O[C@H](COP(=O)(O)OP(=O)(O)OC[C@H]3O[C@@H](n4cnc5c(N)ncnc54)[C@H](OP(=O)(O)O)[C@@H]3O)[C@@H](O)[C@H]2O)C=CC1` [NADPH], the “NADPH oxidation fluorescence assay with NADPH titration” value in test [1] is reported as “DprE2 activity was monitored through a change in fluorescence due to the oxidation of the DprE2 cofactor, NADPH”.

On to `O=[N+]([O-])c1cn2c(n1)OC[C@@H](OCc1ccc(OC(F)(F)F)cc1)C2` [pretomanid], for which, in test [2], the “pro-drug activation by purified Ddn with Fgd1/F420, read out by DprE2 inhibition” value is recorded as “upon activation of the pretomanid by Ddn, there was a dose-dependent reduction in Mt-DprE2 activity”.

On to BTZ, for which, in test [3], the IC50 stood at 11.8 ± 0.7 µM.

In test [4], Ddn-activated pretomanid had a Ki of 1.5 ± 0.4 µM.
